Results: patent publication US11413278B2, “Compounds and methods for promoting stress resistance” (priority 2015, dated 2022)
Like-named read-outs stand apart in the source and are kept apart here.

How the values were obtained:
WI-38 cells [1] = assay: MMS resistance assay; format: cell-based, human; conditions: for fold induction at 10 µM: Homo sapiens, 12 h, normalized ATP measurement; for Assay 3: MMS-resistant / Assay 5: Triple resistant: YES/NO; for Assay 3: MMS-resistant: * indicates partial; for Assay 5: Triple resistant: H2O2, cadmium and MMS
Outline: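 Resistance to CdCl2 or MMS stress (12 h exposure) was scored in WI-38 fibroblasts pretreated with compound at 0.25–20 μM final, five doses, technical triplicates. MMS plates had compound added 24 h before MMS, after a shift to serum-free DMEM+2% BSA. Significance came from a global variance t-test over two independent runs.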

[2] = tested on: PC12 cells expressing poly(Q)103-Htt-EGFP; assay: Poly(Q) toxicity & viability analysis (cellular model of Huntington's disease); format: cell-based, rat; conditions: for M = Huntington's poly-Q toxicity attenuation: score; for K = Huntington's poly-Q toxicity attenuation: summary score
Experimental: Viability assays were performed as described before (Aiken et al., 2004). PC12 cells that stably express the inducible poly(Q)103-Htt-EGFP were grown in culture. […] Cell viability was analyzed 48 hrs later by measuring ATP content with CellTiter-Glo.
Toxic protein aggregation is a key feature of many age-related neurodegenerative diseases, including Alzheimer's and Huntington's disease (Caughey and Lansbury, 2003; Ross and Poirier, 2004). A number of animal models (Phillips et al., 2009) and cell models (Schlachetzki et al., 2013) have been established to study these diseases. For this purpose, PC12 rat pheochromocytoma cells display neuronal features and produce neurotransmitters and have been used extensively to study neuronal phenotypes, including synaptic transmission and neurological diseases. […] In this model, induced expression of poly(Q)103-Htt-EGFP could lead to the formation of aggregates and exert substantial toxicity in cells.

[3] = tested on: phosphorylated γH2A.X and TP53BP1; assay: DNA damage marker analysis (immuno-staining); conditions: for activity at 10 µM: Homo sapiens, WI-38, 24 h; for P = Potential DNA-damaging / R = Potential DNA damaging: human, 24 h
Experimental: WI-38 cells were seeded on 96-well plates and cultured for 24 hrs and then incubated with small molecules for another 24 hrs. As the positive control to damage DNA, H2O2 was supplemented at 700 μM final concentration for the last 3 hrs. Cells were washed with phosphate-buffered saline (PBS), fixed with 4% paraformaldehyde and then blocked with 5% normal goat serum (Cell Signaling), plus 0.3% Triton X-100, for 1 hr. Primary antibody cocktail (rabbit anti-phospho-histone γH2A.X (Ser-139), 1:100; anti-phospho-TP53BP1 (Ser-1778), 1:100), prepared in 1% BSA and 0.3% Triton X-100/PBS, was then introduced and incubated overnight at 4 C. Next day, samples were washed with PBS and further incubated with fluorophore-conjugated secondary antibody (1:1,000) for 1 hr in the dark. Samples were then washed and incubated with DAPI dye (Life Technologies) (4 μg/ml final concentration) for the last 10 minutes. Images were collected on an INCell Analyzer 2000 (GE) and analyzed with the Developer software.
WI-38 cells were seeded (˜8,000 cells per well) on 96-well plates and cultured for 24 hrs and then incubated with small molecules for another 24 hrs. Doxorubicin (300 nM, 24 hrs) and H2O2 (700 μM, 3 hrs) were also introduced as the positive controls to damage DNA. Cells were washed with phosphate-buffered saline (PBS), fixed with 4% paraformaldehyde for 30 min and then blocked with 5% normal goat serum (Cell Signaling) and 0.3% Triton X-100 for 1 hr. Primary antibody cocktail (Cell Signaling, rabbit anti-phospho-histone γH2A.X (Ser-139), 1:100; anti-phospho-TP53BP1 (Ser-1778), 1:100) was prepared in PBS with 1% BSA and 0.3% Triton X-100 and incubated overnight at 4° C. Next day, samples were washed with PBS and further incubated with fluorophore-conjugated secondary antibody (1:1,000) for 1 hr in dark. Samples were then washed and incubated with DAPI dye (Life Technologies) (4 μg/ml final concentration) for 30 minutes. Images were collected on the INCell Analyzer 2000 (10× objective) and analyzed with the Developer Toolbox.

WI-38 cells [4] = assay: Long-term effects on cell viability (5 days, ATP; morphology, PI imaging); format: cell-based; conditions: 10 μM; for Luminescence signal for ATP measurement, day-1 Average / Luminescence signal for ATP measurement, day-2 Average / Luminescence signal for ATP measurement, day-3 Average / Luminescence signal for ATP measurement, day-4 Average / Luminescence signal for ATP measurement, day-5 Average / viability at 10 µM: Batch 1; for Luminescence signal for ATP measurement, day-1 Average / Luminescence signal for ATP measurement, day-2 Average / Luminescence signal for ATP measurement, day-3 Average / Luminescence signal for ATP measurement, day-4 Average / Luminescence signal for ATP measurement, day-5 Average: n = 6, day-0 luminescence = 320956 ± 24708; for viability at 10 µM: Homo sapiens, WI-38, 120 h, DMSO ctrl = 100.0%, read-out: ATP luminescence by day-5 normalized; for Luminescence signal for ATP measurement, day-5 Average / viability at 10 µM: day-5;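 on Luminescence signal for ATP measurement, day-2 Average: compounds at 10 µM with ATP read daily over 5 days of treatment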;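 on Luminescence signal for ATP measurement, day-3 Average: compounds at 10 µM with ATP read daily over 5 days of treatment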;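 on Luminescence signal for ATP measurement, day-4 Average: compounds at 10 µM with ATP read daily over 5 days of treatment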;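 on Luminescence signal for ATP measurement, day-5 Average: compounds at 10 µM with ATP read daily over 5 days of treatment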
Experimental: In addition, cell death was scored by PI-imaging on day 2 and day 5 of treatment.
Applicants introduced molecules (at 10 uM final concentration) to WI-38 fibroblasts and then assayed cell viability (through ATP measurement) everyday, during a course of 5 days of continuous treatment. […] Applicants also examined the morphology and scored cell death (propidium iodide staining) for cells treated with the above molecules. Of these 14 molecules, some appeared to cause cell toxicity. […] Despite the observed long-term toxicity, these molecules are still interesting as they may act as anti-tumor agents in vivo, should they have more pronounced cytotoxicity on highly proliferative tumor cells. When cells were incubated with these molecules for ˜24 hrs and then subject to hydrogen peroxide for 3 hrs, these molecules are all protective. […] Some of these small molecules may be toxic by themselves under certain conditions, but by inducing protective mechanisms, they may trigger “hormesis” and therefore protect cells from oxidative stress.

WI-38 cells [5] = conditions: for No H2O2 stress treatment, at 10 uM (fold change): normalized ATP measurement; for Assay 1: H2O2-resistant: YES/NO, if NO, possibly due to repeated freezing/thawing of stocks
[6] = Exp. 1, WI-38 cells, read-out: Exp. 1, under MMS stress treatment, at 10 uM (fold change)
[7] = Exp. 2, WI-38 cells, read-out: Exp. 2, under MMS stress treatment, at 10 uM (fold change)
[8] = score in summary of 38 core set hits
[9] = read-out: Experiment 1, H2A.X-P DNA damage foci staining (no H2O2 stress treatment), at 10 uM
[10] = read-out: Experiment 2, H2A.X-P DNA damage foci staining (no H2O2 stress treatment), at 10 uM
[11] = read-out: Experiment 2, H2A.X-P DNA damage foci staining (under H2O2 stress treatment), at 10 uM
[12] = read-out: Experiment 2, TP53BP1-P DNA damage foci staining (no H2O2 stress treatment), at 10 uM
[13] = read-out: Experiment 2, TP53BP1-P DNA damage foci staining (under H2O2 stress treatment), at 10 uM
[14] = WI-38 cells, 10 μM, (*) = compromised ability to protect cells from H2O2, could be due to stability issue
[15] = asterisks indicate the loss of the ability to protect cells from H2O2 over time
[16] = derived from dose response curves, 0.6-20 uM, H2O2-resistance of WI-38 cells
[17] = read-out: Est. ED50, dose response 0.6-20 μM, H2O2-resistance

SMILES | fold induction at 10 µM (WI-38 cells [1]; [6]) | fold induction at 10 µM (WI-38 cells [1]; [7]) | B = MMS resistant (WI-38 cells [1]; [8]) | B = MMS resistant (WI-38 cells [1]; summary score) | D = Triple resistant (WI-38 cells [1]; summary score) | M = Huntington's poly-Q toxicity attenuation [2] | K = Huntington's poly-Q toxicity attenuation [2] | activity at 10 µM [3, 9] | activity at 10 µM [3, 10] | activity at 10 µM [3, 11] | activity at 10 µM [3, 12] | P = Potential DNA-damaging [3] | R = Potential DNA damaging [3] | O = Potential toxicity (WI-38 cells [4]; human, 5 days) | Q = Potential toxicity (WI-38 cells [4]; human, 5 days) | H2O2-resistant (WI-38 cells [5]; [14]) | Assay 1: H2O2-resistant (WI-38 cells [5]) | H2O2-resistant (WI-38 cells [5]; [15]) | EC50 (WI-38 cells [5]; [16]) | EC50 (WI-38 cells [5]; [17]) | also measured
O=C(Nc1cccc(C(F)(F)F)c1)c1ccc([N+](=O)[O-])o1 [Gr-1E] | 0.72 | 1.21 | 0 | 0 | 0 | 0 | 0 | 162% | 107% | 151% | 289% | 0 | 0 | 0 | 0 | YES | YES | YES | 3.7 µM | 2.76 µM | Assay 3: MMS-resistant (WI-38 cells [1]): NO *; Assay 5: Triple resistant (WI-38 cells [1]): YES; activity at 10 µM [3, 13]: 475%; Luminescence signal for ATP measurement, day-1 Average (WI-38 cells [4]): 474558; Luminescence signal for ATP measurement, day-2 Average (WI-38 cells [4]): 698358; Luminescence signal for ATP measurement, day-3 Average (WI-38 cells [4]): 788420; Luminescence signal for ATP measurement, day-4 Average (WI-38 cells [4]): 1038011; Luminescence signal for ATP measurement, day-5 Average (WI-38 cells [4]): 1066135; viability at 10 µM (WI-38 cells [4]): 104%; No H2O2 stress treatment, at 10 uM (fold change) (WI-38 cells [5]; WI-38 cells): 0.96 fold change
Cc1ccc(NC(=O)c2ccc([N+](=O)[O-])o2)cc1C [Gr-1F] | 0.74 | 2.07 | 0 | 1 | 2 | 0 | 0 | 219% | 378% | 127% | 460% | 1 | 1 | 1 | 1 | YES | YES | YES | 14.8 µM | 2.88 µM | Assay 3: MMS-resistant (WI-38 cells [1]): YES; Assay 5: Triple resistant (WI-38 cells [1]): YES; activity at 10 µM [3, 13]: 558%; Luminescence signal for ATP measurement, day-1 Average (WI-38 cells [4]): 383221; Luminescence signal for ATP measurement, day-2 Average (WI-38 cells [4]): 440655; Luminescence signal for ATP measurement, day-3 Average (WI-38 cells [4]): 446240; Luminescence signal for ATP measurement, day-4 Average (WI-38 cells [4]): 534298; Luminescence signal for ATP measurement, day-5 Average (WI-38 cells [4]): 600633; viability at 10 µM (WI-38 cells [4]): 58.5%; No H2O2 stress treatment, at 10 uM (fold change) (WI-38 cells [5]; WI-38 cells): 0.60 fold change
O=C(Nc1ccc(Cl)c(Cl)c1)c1ccc([N+](=O)[O-])o1 [Gr-1G] | 1.32 | 1.89 | 0 | 0 | 0 | 0 | 0 | 150% | 179% | 63.3% | 256% | 0 | 0 | 1 | 0 | YES | YES | YES | 4.8 µM | 2.95 µM | Luminescence signal for ATP measurement, day-1 Average (WI-38 cells [4]): 449436; Luminescence signal for ATP measurement, day-2 Average (WI-38 cells [4]): 530748; Luminescence signal for ATP measurement, day-3 Average (WI-38 cells [4]): 651695; Luminescence signal for ATP measurement, day-4 Average (WI-38 cells [4]): 866631; Luminescence signal for ATP measurement, day-5 Average (WI-38 cells [4]): 955703; viability at 10 µM (WI-38 cells [4]): 93.1%
O=[N+]([O-])c1ccccc1S(=O)(=O)Nc1cccc2cccnc12 [Gr-3A] | 1 | 0.86 | 0 | 1 | 2 | 0 | 0 | 139% | 338% | 143% | 334% | 1 | 1 | 0 | 0 | YES | YES | YES | 11.2 µM | 4.21 µM | Assay 3: MMS-resistant (WI-38 cells [1]): YES; Assay 5: Triple resistant (WI-38 cells [1]): YES; activity at 10 µM [3, 13]: 66.1%; Reduction of ATP content after 5 days of continuous incubation (WI-38 cells [4]; human, 5 days): more than 40%; No H2O2 stress treatment, at 10 uM (fold change) (WI-38 cells [5]; WI-38 cells): 0.98 fold change
